{"source": "patent US20170314074A1", "about": "“LPA-ASSOCIATED PROTEIN AND RNA EXPRESSION” (Intermune, Inc., priority 2014, published 2017)", "test_system": "normal human lung fibroblasts", "assay": "mRNA expression after LPA induction, Affymetrix Human Gene ST arrays, fibroblasts (Table 4A)", "type": "cell-based", "conditions": "LPA-induced fibroblasts; 1 μM BMS-986020; average of 3 experiments", "method": "Changes in gene expression after 3 hours of LPA induction were profiled on Affymetrix Human Gene ST 2.0 microarrays; differentially expressed genes identified by ANOVA with FDR <0.05 and fold-change >1.2. Process networks associated with differentially expressed genes were defined using MetaCore. Changes in secreted protein expression after 24 hours of LPA induction were profiled on an aptamer-based proteomic platform (1129 proteins); differentially expressed proteins identified by t-test.\nTotal RNA was isolated from normal human lung fibroblasts, human bronchial epithelial cells, and human pulmonary alveolar epithelial cells treated for […] with LPA and/or LPAR1 inhibitor. Each treatment condition was assayed in triplicate. Samples were profiled on Affymetrix Human Gene ST Arrays 1.0 and/or 2.0 after preparation using the Ambion WT Expression Kit according to manufacturers' instructions.\nData normalization and all subsequent analyses were performed in Partek Genomics Suite (Partek, St. Louis, Mo.). Data were normalized using the Robust Multi-array Average (RMA) algorithm. Differentially expressed genes were identified by ANOVA with correction for multiple comparisons with p-value with FDR<0.05. A fold-change cut-off was not strictly applied, although the majority of the differentially expressed genes identified have fold-changes greater than 1.2. Genes were included if they were statistically significant for (1) LPA-induction and (2) response to treatment with an LPAR1 inhibitor.\nIn Tables 1-5 The differentially expressed secreted proteins set forth in Tables 1, 2, and 5 and the differentially expressed mRNAs set forth in Table 3 and 4 were identified by visual inspection of individual dot-plots.\nFor the gene and protein expression analysis primary fibroblasts (NHLF product #CC-2512 from Lonza group LTD) and primary epithelial cells (NHBE Product #CC-2540 from Lonza; HPAEpiC Product #3200 from Sciencell (USA, California)) were cultured as recommended by the manufacturer, except they were cultured on collagen coated plates. As part of the induction protocol cells were starved overnight in low (0.2 or 0.1% serum) or no serum (0%), prior to stimulation with LPA.", "data": [{"smiles": "Cc1noc(-c2ccc(-c3ccc(C4(C(=O)O)CC4)cc3)cc2)c1NC(=O)O[C@H](C)c1ccccc1", "note": "[BMS-986020]", "values": [{"measurement": "Effect of 1 μM BMS-986020 relative to induced cells (fold-change), BIRC3 mRNA", "result": "−3.33", "unit": "fold-change"}, {"measurement": "Effect of 1 μM BMS-986020 relative to induced cells (fold-change), CHIC2 mRNA", "result": "−2.40", "unit": "fold-change"}, {"measurement": "Effect of 1 μM BMS-986020 relative to induced cells (fold-change), CNST mRNA", "result": "−2.32", "unit": "fold-change"}, {"measurement": "Effect of 1 μM BMS-986020 relative to induced cells (fold-change), CTGF mRNA", "result": "−4.62", "unit": "fold-change"}, {"measurement": "Effect of 1 μM BMS-986020 relative to induced cells (fold-change), CYR61 mRNA", "result": "−7.53", "unit": "fold-change"}, {"measurement": "Effect of 1 μM BMS-986020 relative to induced cells (fold-change), DKK1 mRNA", "result": "−6.16", "unit": "fold-change"}, {"measurement": "Effect of 1 μM BMS-986020 relative to induced cells (fold-change), DUSP1 mRNA", "result": "−2.56", "unit": "fold-change"}, {"measurement": "Effect of 1 μM BMS-986020 relative to induced cells (fold-change), EFNB2 mRNA", "result": "−2.63", "unit": "fold-change"}, {"measurement": "Effect of 1 μM BMS-986020 relative to induced cells (fold-change), GPR37 mRNA", "result": "−3.13", "unit": "fold-change"}, {"measurement": "Effect of 1 μM BMS-986020 relative to induced cells (fold-change), HAS2 mRNA", "result": "−2.89", "unit": "fold-change"}, {"measurement": "Effect of 1 μM BMS-986020 relative to induced cells (fold-change), HBEGF mRNA", "result": "−5.41", "unit": "fold-change"}, {"measurement": "Effect of 1 μM BMS-986020 relative to induced cells (fold-change), IER3 mRNA", "result": "−3.28", "unit": "fold-change"}, {"measurement": "Effect of 1 μM BMS-986020 relative to induced cells (fold-change), IL6 mRNA", "result": "−4.08", "unit": "fold-change"}, {"measurement": "Effect of 1 μM BMS-986020 relative to induced cells (fold-change), KPRP mRNA", "result": "−3.81", "unit": "fold-change"}, {"measurement": "Effect of 1 μM BMS-986020 relative to induced cells (fold-change), KRTAP1-5 mRNA", "result": "−6.89", "unit": "fold-change"}, {"measurement": "Effect of 1 μM BMS-986020 relative to induced cells (fold-change), KRTAP4-12 mRNA", "result": "−3.90", "unit": "fold-change"}, {"measurement": "Effect of 1 μM BMS-986020 relative to induced cells (fold-change), LIF mRNA", "result": "−5.07", "unit": "fold-change"}, {"measurement": "Effect of 1 μM BMS-986020 relative to induced cells (fold-change), MCP-1/CCL2 mRNA", "result": "−5.99", "unit": "fold-change"}, {"measurement": "Effect of 1 μM BMS-986020 relative to induced cells (fold-change), MIR218-1", "result": "−2.82", "unit": "fold-change"}, {"measurement": "Effect of 1 μM BMS-986020 relative to induced cells (fold-change), PAI-1 mRNA", "result": "−2.43", "unit": "fold-change"}, {"measurement": "Effect of 1 μM BMS-986020 relative to induced cells (fold-change), PDCD1LG2 mRNA", "result": "−2.51", "unit": "fold-change"}, {"measurement": "Effect of 1 μM BMS-986020 relative to induced cells (fold-change), PTX3 mRNA", "result": "−2.49", "unit": "fold-change"}, {"measurement": "Effect of 1 μM BMS-986020 relative to induced cells (fold-change), SERPINB2 mRNA", "result": "−2.64", "unit": "fold-change"}, {"measurement": "Effect of 1 μM BMS-986020 relative to induced cells (fold-change), TNFAIP3 mRNA", "result": "−3.68", "unit": "fold-change"}, {"measurement": "Effect of 1 μM BMS-986020 relative to induced cells (fold-change), TXNIP mRNA", "result": 4.41, "unit": "fold-change"}, {"measurement": "Effect of 1 μM BMS-986020 relative to induced cells (fold-change), UGCG mRNA", "result": "−2.52", "unit": "fold-change"}, {"measurement": "Effect of 1 μM BMS-986020 relative to induced cells (fold-change), VGLL3 mRNA", "result": "−2.97", "unit": "fold-change"}]}]}
